Results taken from patent US8034804B2 (N.V. Organon, priority 2001, dated 2011).

What was measured:
AMPA receptor = experiment: Patch clamp whole cell electrophysiology: glutamate-evoked steady state current in cultured hippocampal neurons; assay type: cell-based; settings: 10 μM compound in extracellular solution; 0.5 mM glutamate; rat hippocampal neurons voltage clamped at −60 mV
Description: The (pyrido/thieno)-[f]-oxazepin-5-one derivatives of the invention are AMPA receptor positive modulators, as can be determined by an increase in steady state current induced by application of glutamate in a conventional whole cell patch clamp method when a (pyrido/thieno)-[f]-oxazepin-5-one of the invention is present (see Example 10 and Table I). The compounds may be used in the treatment of neurological and psychiatric diseases where an enhancement of synaptic responses mediated by AMPA receptors is required, such as neurodegenerative disorders, cognitive or memory dysfunction, memory and learning disorders such as can result from ageing, attention disorder, trauma, stroke, epilepsy, Alzheimer's disease, depression, schizophrenia, psychotic disorders, sexual dysfunctions, autism, or a disorder or disease resulting from neurotic agents or substance abuse, and alcohol intoxication.
Hippocampal neuronal cultures were prepared from embryonic or 1-3 day old Sprague-Dawley rats which were decapitated and the heads immediately placed in ice cold HBS (HEPES Buffered Solution: 130 mM NaCl, 5.4 mM KCl, 10 mM HEPES, 1.0 mM MgCl2, 1.8 CaCl2, 25 mM glucose, adjusted to pH 7.4). The whole brain was excised and placed on pre-sterilised filter paper, soaked in HBS and the cerebellum was removed. The brain was chopped and an enzyme solution (0.5 mg/ml protease X and 0.5 mg/ml protease in HBS) was added and subsequently left for 40 minutes at room temperature to digest before trituration. Cells were resuspended and then counted to give a final concentration of 1.5×10^6 per ml. Cells were aliquoted onto poly-D-lysine- and Matrigel®-treated coverslips and left to incubate at 37° C. for 1-2 hours. When incubation was complete, 1 ml of growth medium was added to each well containing a coverslip and the cells were returned to the incubator. After 3-5 days the mitotic inhibitor cytosine arabinoside (5 μM) was added and the cells returned to the incubator until required.
The whole cell configuration of the patch clamp technique (Hamill et al., Pflügers Arch. 1981, 39, 85-100) was used to measure glutamate-evoked currents from postnatal hippocampal neurons maintained in culture for 4-7 days. A glass coverslip containing the culture was transferred to the recording chamber (Warner Instrument Corp., Hamden, Conn.) mounted on the stage of an inverted microscope (Nikon, Kingston, UK). The recording chamber contained 1-2 ml extracellular solution (145 mM NaCl, 5.4 mM KCl, 10 mM HEPES, 0.8 mM MgCl2, 1.8 CaCl2, 10 mM glucose and 30 mM sucrose, adjusted to pH 7.4 with 1 M NaOH) and was constantly perfused at a rate of 1 ml/min. Recordings were performed at room temperature (20-22° C.) using an Axopatch 200B amplifier (Axon Instruments Ltd., Foster City, Calif.). Data acquisition and analysis was performed using Signal software (Cambridge Electronic Design Ltd., Cambridge, UK). Pipettes were manufactured from GC120F-10 glass (Harvard Apparatus, Edenbridge UK) using a model P-87 electrode puller (Sutter Instruments Co., Novarto, Calif.). The patch electrodes had typical resistances of between 3-5 MΩ when filled with intracellular solution (140 mM potassium gluconate, 20 mM HEPES, 1.1 mM EGTA, 5 mM phosphocreatine, 3 mM ATP, 0.3 mM GTP, 0.1 mM CaCl2, 5 mM MgCl2, adjusted to pH 7.4 with 1 M KOH).
Cells were voltage clamped at a holding potential of −60 mV and glutamate (0.5 mM) was applied using a 12 channel semi-rapid drug application device (DAD-12. Digitimer Ltd., Welwyn Garden city, UK). The agonist glutamate was applied for 1 s every 30 s. […] Between applications saline flowed to clear any dead volume in the system. For each application steady-state currents were plotted from the difference in baseline and steady state current and averaged over 300 ms.
Two solutions of the compound in extracellular solution were made up, one with glutamate and one without. […]

Mice = experiment: Inhibition of amphetamine-induced hyperlocomotion; assay type: in vivo, mouse; settings: drug sc 30 minutes before 1.5 mg/kg d-amphetamine sulphate sc, locomotor activity measured for 60 minutes
Protocol: Mice were injected sc with drug treatment or vehicle control. 30 Minutes later mice were injected sc with 1.5 mg/kg d-amphetamine sulphate or saline and immediately placed in infra red locomotor boxes where locomotor activity (long duration beam breaks of two adjacent beams) and stereotypic behaviour (repetitive short-duration beam breaks) were measured for a period of 60 minutes. The experiment was analysed using a 3-Way ANOVA with experimental session, infra red locomotor boxes and treatment as factors, and in the case of treatment, significant effects were followed up using a Tukey (HSD) test.

Rats = experiment: Differential reinforcement of low rates of responding, 72 seconds (DRL72); assay type: in vivo, rat; settings: intraperitoneal route 30 minutes before 60 minute test session
Protocol: Rats are pretrained in a standard operant chamber to perform a DRL72 procedure according to Andrews et al (Andrews J S, Jansen J H M, Linders S, Princen A, Drinkenburg WHIM, Coenders C J H and Vossen J H M (1994). Effects of imipramine and mirtazapine on operant performance in rats. Drug Development Research, 32, 58-66). The test session lasts for 60 minutes with no limit to the number of trials. Each trial begins with the stimulus light on above the active lever. A response on the lever only results in delivery of a pellet if 72 seconds has elapsed. A response on the lever before 72 seconds has elapsed resets the timer and is not rewarded. The number of pellets earned and the number of lever presses is recorded and used to calculate an efficiency score. Test compounds are administered via the intraperitoneal route 30 minutes before the start of the test session. Antidepressants increase the number of pellets earned and decrease the number of lever presses.

Row | Compound | % Increase in steady state current at 10 μM (AMPA receptor) | Inhibition of amphetamine induced hyperlocomotion (Mice) | DRL72 operant performance (pellets earned, lever presses): antidepressant like profile (Rats)
1 | O=C1c2sccc2OC[C@@H]2CCCN12 [Example 1] | 32% | inhibited amphetamine induced hyperlocomotion | –
2 | O=C1c2ccc(C(F)(F)F)nc2OC[C@@H]2CCCN12 [Example 2B, (S)-8-trifluoromethyl-2,3,11,11a-tetrahydro-1H,5H-pyrrolo[2,1-c]pyrido[3,2-f][1,4]-oxazepine-5-one] | 21% | – | –
3 | O=C1c2ccc(C(F)(F)F)nc2OC[C@H]2CCCN12 [Example 2C, (R)-8-trifluoromethyl-2,3,11,11a-tetrahydro-1H,5H-pyrrolo[2,1-c]pyrido[3,2-f][1,4]-oxazepine-5-one] | 19% | – | –
4 | Cc1ccc2c(n1)OCC1CCCN1C2=O.Cl [Example 3, (S)-8-Methyl-2,3,11,11a-tetrahydro-1H,5H-pyrrolo[2,1-c]pyrido[3,2-f][1,4]oxazepine-5-one Hydrochloride Salt] | 12% | – | –
5 | O=C1c2ccc(Cl)nc2OC[C@@H]2CCCN12 [Example 4A, (S)-8-Chloro-2,3,11,11a-tetrahydro-1H,5H-pyrrolo[2,1-c]pyrido[3,2-f][1,4]oxazepine-5-one] | 16% | – | –
6 | O=C1c2ccc(Cl)nc2OC[C@H]2CCCN12 [Example 4B, (R)-8-Chloro-2,3,11,11a-tetrahydro-1H,5H-pyrrolo[2,1-c]pyrido[3,2-f][1,4]oxazepine-5-one] | 29% | – | –
7 | O=C1c2cc(Cl)sc2OC[C@@H]2CCCN12 [Example 5, (S)-7-Chloro-2,3,10,10a-tetrahydro-1H,5H-pyrrolo[2,1-c]thieno[3,2-f][1,4]oxazepine-5-one] | 16% | – | –
8 | O=C1c2cc(Cl)sc2OC[C@H]2CCCN12 [Example 6A, (R)-7-Chloro-2,3,10,10a-tetrahydro-1H,5H-pyrrolo[2,1-c]thieno[3,2-f][1,4]oxazepine-5-one] | 20% | – | –
9 | (+)-6,6a,7,8,9,10-hexahydro-12H-pyrido[2,1-c]pyrido[3,2-f][1,4]oxazepine-12-one [Example 4D] | 13% | – | –
10 | (S)-2,3,11,11a-tetrahydro-1H,5H-pyrrolo[2,1-c]pyrido[3,2-f][1,4]oxazepine-5-one | 22% | inhibited amphetamine induced hyperlocomotion | antidepressant like profile
11 | (S)-8-Methoxy-2,3,11,11a-tetrahydro-1H,5H-pyrrolo[2,1-c]Pyrido[3,2-f][1,4]oxazepine-5-one [Example 7] | 22% | – | –
